Assay results: patent publication US20220073536A1 (Rigel Pharmaceuticals, Inc., priority 2003, published 2022)
Like-named read-outs stand apart in the source and are kept apart here.

Tested on: cultured human mast cells (CHMC)
Assay: CHMC low cell density IgE activation: tryptase assay
Format: cell-based
Details: low cell density CHMC, IgE activation
Method: Inhibition of degranulation was measured at both low and high cell density by quantifying the release of the granule specific factors tryptase, histamine and hexosaminidase. Inhibition of release and/or synthesis of lipid mediators was assessed by measuring the release of leukotriene LTC4 and inhibition of release and/or synthesis of cytokines was monitored by quantifying TNF-α, IL-6 and IL-13. Tryptase and hexosaminidase were quantified using fluorogenic substrates as described in their respective examples. […] The protocols of the various assays are provided below.
Pellet CHMC cells (980 rpm, 10 min) and resuspend in pre-warmed MT. Add 65 ul of cells to each 96-well plate. Depending on the degranulation activity for each particular CHMC donor, load 1000-1500 cells/well. Mix four times followed by a 1 hr incubation at 37° C. […] Stimulate cells by adding 25 ul of 6× anti-IgE solution to the appropriate plates. Add 25 ul MT to un-stimulated control wells. Mix twice following addition of the anti-IgE. Incubate at 37° C. for 30 minutes. […] Spin plates at 1000 rpm for 10 min to pellet cells. Transfer 25 ul of supernatant to a 96-well black bottom plate and add 100 ul of freshly diluted tryptase substrate solution to each well. Incubate plates at room temperature for 30 min.

[1] = Homo sapiens, Mast cell, tryptase release, 8 pt, read-out: LD Tryptase, CHMC, IgE, 8 pt
[2] = Homo sapiens, Mast cell, tryptase release, 3 pt, read-out: LD Tryptase, CHMC, IgE, 3 pt
[3] = tryptase release, 8 pt, read-out: LD Tryptase, CHMC, IgE, 8 pt
[4] = tryptase release, 3 pt, read-out: LD Tryptase, CHMC, IgE, 3 pt

| Structure (SMILES) | IC50 [1] [µM] | IC50 [2] [µM] | further results |
| --- | --- | --- | --- |
| COc1ccc(Nc2ncc(F)c(Nc3ccc4c(c3)NC(=O)C(C)S4)n2)cc1Cl (centres unmarked) [Compound 280] | < 10 | – | – |
| O=C1CSc2ccc(Nc3nc(Nc4cccc(O)c4)ncc3F)cc2N1 [Compound 281] | < 10 | < 10 | – |
| CC1(C)C(=O)Nc2cc(Nc3nc(Nc4cccc(O)c4)ncc3F)ccc2S1(=O)=O [Compound 283, racemic-N4-(2,2-Dimethyl-1,1,3-trioxo-4H-benzo[1,4]thiazin-6-yl)-5-fluoro-N2-[3-hydoxyphenyl]-2,4-pyrimidinediamine] | – | – | IC50 [3]: < 10 µM |
| COc1cc(Nc2ncc(F)c(Nc3ccc4c(c3)NC(=O)CS4)n2)cc(OC)c1OC [Compound 287] | < 10 | – | – |
| O=C1CSc2ccc(Nc3nc(Nc4ccc5[nH]ncc5c4)ncc3F)cc2N1 [Compound 288] | < 10 | – | – |
| COc1ccc(Nc2ncc(F)c(Nc3ccc4c(c3)NC(=O)C(C)(C)S4)n2)cc1Cl [Compound 289] | – | – | IC50 [3]: < 10 µM |
| COc1cc(Nc2ncc(F)c(Nc3ccc4c(c3)NC(=O)C(C)(C)S4)n2)cc(OC)c1 [Compound 290] | < 10 | – | – |
| Cc1cc(C)cc(Nc2ncc(F)c(Nc3ccc4c(c3)NC(=O)C(C)(C)S4)n2)c1 [Compound 291] | < 10 | – | – |
| COc1cc(Nc2ncc(F)c(Nc3ccc4c(c3)NC(=O)C(C)(C)S4)n2)cc(OC)c1OC [Compound 292] | < 10 | – | – |
| CC1(C)Sc2ccc(Nc3nc(Nc4cccc(O)c4)ncc3F)cc2NC1=O [Compound 293] | < 10 | – | – |
| CNC(=O)COc1cccc(Nc2ncc(F)c(Nc3ccc4c(c3)NC(=O)C(C)(C)S4)n2)c1 [Compound 294, N4-(2,2-Dimethyl-3-oxo-4H-benzo[1,4]thiazin-6-yl)-5-fluoro-N2-[3-(N-methylamino)carbonylmethyleneoxyphenyl]-2,4-pyrimidinediamine] | – | – | IC50 [4]: < 10 µM; IC50 [3]: < 10 µM |
| CC1(C)Sc2ccc(Nc3nc(Nc4ccc5cn[nH]c5c4)ncc3F)cc2NC1=O [Compound 295] | < 10 | < 10 | – |
| COc1ccc(Nc2ncc(F)c(Nc3ccc4c(c3)NC(=O)C(C)(C)S4(=O)=O)n2)cc1F [Compound 297] | < 10 | < 10 | – |
| COc1ccc(Nc2ncc(F)c(Nc3ccc4c(c3)NC(=O)C(C)(C)S4)n2)cc1F [Compound 299] | – | – | IC50 [4]: < 10 µM; IC50 [3]: < 10 µM |
| COc1ccc(Nc2ncc(F)c(Nc3ccc4c(c3)NC(=O)CS4)n2)cc1F [Compound 300, 5-Fluoro-N2-(3-fluoro-4-methoxyphenyl)-N4-(3-oxo-2H,4H-benzo[1,4]thiazin-6-yl)-2,4-pyrimidinediamine] | < 10 | < 10 | – |
| Cc1cc(C)cc(Nc2ncc(F)c(Nc3ccc4c(c3)NC(=O)CS4)n2)c1 [Compound 301] | < 10 | < 10 | – |
| Cc1cc(C)cc(Nc2ncc(F)c(Nc3ccc4c(c3)NC(=O)CS4(=O)=O)n2)c1 [Compound 302] | < 10 | – | – |
| COc1cc(Nc2ncc(F)c(Nc3ccc4c(c3)NC(=O)CS4(=O)=O)n2)cc(OC)c1 [Compound 303] | < 10 | – | – |
| COc1ccc(Nc2ncc(F)c(Nc3ccc4c(c3)NC(=O)CS4(=O)=O)n2)cc1Cl [Compound 304] | < 10 | – | – |
| CNC(=O)COc1cccc(Nc2ncc(F)c(Nc3ccc4c(c3)NC(=O)CS4(=O)=O)n2)c1 [Compound 305, 5-Fluoro-N2-[3-(N-methylamino)carbonylmethyleneoxyphenyl]-N4-(1,1,3-trioxo-2H,4H-benzo[1,4]thiazin-6-yl)-2,4-pyrimidinediamine] | – | – | IC50 [3]: < 10 µM |
| COc1cc(Nc2ncc(F)c(Nc3ccc4c(c3)NC(=O)CS4(=O)=O)n2)cc(OC)c1OC [Compound 306, 5-Fluoro-N2-(3,4,5-triimethoxylphenyl)-N4-(1,1,3-trioxo-2H,4H-benzo[1,4]thiazin-6-yl)-2,4-pyrimidinediamine] | – | – | IC50 [3]: < 10 µM |
| O=C1CS(=O)(=O)c2ccc(Nc3nc(Nc4ccc5cn[nH]c5c4)ncc3F)cc2N1 [Compound 307] | < 10 | – | – |
| O=C1CS(=O)(=O)c2ccc(Nc3nc(Nc4cccc(O)c4)ncc3F)cc2N1 [Compound 308] | < 10 | – | – |
| COc1ccc(Nc2ncc(F)c(Nc3ccc4c(c3)NC(=O)CS4(=O)=O)n2)cc1F [Compound 309] | < 10 | – | – |
| O=C1CS(=O)(=O)c2ccc(Nc3nc(Nc4ccc5[nH]ncc5c4)ncc3F)cc2N1 [Compound 310] | < 10 | – | – |

| Structure (SMILES) | IC50 [1] [µM] | IC50 [2] [µM] | further results |
| --- | --- | --- | --- |
| Cn1ncc2ccc(Nc3ncc(F)c(Nc4ccc5c(c4)NC(=O)C(C)(C)S5)n3)cc21 [Compound 311] | < 10 | < 10 | – |
| O=C1CSc2ccc(Nc3nc(Cl)ncc3F)cc2N1 [Compound 313, N2-Chloro-5-fluoro-N4-(3-oxo-2H,4H-benzo[1,4]thiazin-6-yl)-4-pyrimidineamine] | – | – | IC50 [4]: < 10 µM |
| O=C1CS(=O)(=O)c2ccc(Nc3nc(Cl)ncc3F)cc2N1 [Compound 315, N2-Chloro-5-fluoro-N4-(1,1,3-trioxo-2H,4H-benzo[1,4]thiazin-6-yl)-4-pyrimidineamine] | – | – | IC50 [4]: > 10 µM |
| CC1(C)Sc2ccc(Nc3nc(Cl)ncc3F)cc2NC1=O [Compound 316, N2-Chloro-N4-(2,2,-dimethyl-3-oxo-4H-benzo[1,4]thiazin-6-yl)-5-fluoro-4-pyrimidineamine] | – | – | IC50 [4]: < 10 µM |
| CC1(C)C(=O)Nc2cc(Nc3nc(Cl)ncc3F)ccc2S1(=O)=O [Compound 318, N2-Chloro-N4-(2,2-dimethyl-1,1,3-trioxo-4H-benzo[1,4]thiazin-6-yl)-5-fluoro-4-pyrimidineamine] | – | – | IC50 [4]: < 10 µM |
| CC1(C)COc2ccc(Nc3nc(Cl)ncc3F)cc2N1 [Compound 320, N2-Chloro-N4-(3,3-dimethyl-1,4-benzoxazin-6-yl)-5-fluoro-pyrimidineamine] | – | – | IC50 [4]: < 10 µM |
| COc1cc(Nc2ncc(F)c(Nc3cccc(OC(F)(F)F)c3)n2)cc(OC)c1 [Compound 324] | – | < 10 | – |
| Cc1cc(C)cc(Nc2ncc(F)c(Nc3cccc(OC(F)(F)F)c3)n2)c1 [Compound 325, N2-(3,5-Dimethylphenyl)-5-fluoro-N4-(3-trifluoromethoxyphenyl)-2,4-pyrimidinediamine] | – | < 10 | – |
| Fc1cnc(Nc2ccc3cc[nH]c3c2)nc1Nc1cccc(OC(F)(F)F)c1 [Compound 326, 5-Fluoro-N2-(indol-6-yl)-N4-(3-trifluoromethoxyphenyl)-2,4-pyrimidinediamine] | < 10 | < 10 | – |
| CNC(=O)COc1cccc(Nc2ncc(F)c(Nc3ccc4ccn(C(=O)NC)c4c3)n2)c1 [Compound 327, 5-Fluoro-N4-[1-(N-methylamino)carbonylindol-6-yl]-N2-[3-(N-methylamino)carbonylmethyleneoxyphenyl]-2,4-pyrimidinediamine] | – | – | IC50 [4]: < 10 µM |
| COc1cc(Nc2ncc(F)c(Nc3cc(C)cc(C)c3)n2)cc(OC)c1 [Compound 328] | < 10 | – | – |
| COc1cc(Nc2ncc(F)c(Nc3cc(C)cc(C)c3)n2)cc(C(F)(F)F)c1 [Compound 329] | – | < 10 | – |
| Cc1cc(C)cc(N(c2cc(C)cc(C(F)(F)F)c2)c2nc(N)ncc2F)c1 [Compound 330] | – | < 10 | – |
| COc1cc(Nc2nc(Nc3cc(C)cc(C)c3)ncc2F)cc(C(F)(F)F)c1 [Compound 331] | – | < 10 | – |
| COc1cc(Nc2ncc(F)c(Nc3cc(OC)cc(C(F)(F)F)c3)n2)cc(OC)c1 [Compound 332, N2-(3,5-Dimethoxyphenyl)-5-fluoro-N4-(3-methoxy-5-trifluoromethylphenyl)-2,4-pyrimidinediamine] | – | < 10 | – |
| COc1cc(Nc2ncc(F)c(Nc3cc(OC)cc(C(F)(F)F)c3)n2)cc(C(F)(F)F)c1 [Compound 333] | – | < 10 | – |
| COc1cc(Nc2nc(Nc3cc(C)cc(C(F)(F)F)c3)ncc2F)cc(C(F)(F)F)c1 [Compound 334] | – | < 10 | – |
| COc1cc(Nc2nc(Nc3cc(OC)c(OC)c(OC)c3)ncc2F)cc(C(F)(F)F)c1 [Compound 335] | < 10 | – | – |
| COc1cc(Nc2nc(Nc3cc(C)c(O)c(Cl)c3)ncc2F)cc(C(F)(F)F)c1 [Compound 336, N2-(3-Chloro-4-hydroxy-5-methylphenyl)-5-fluoro-N4-(3-methoxy-5-trifluoromethylphenyl)-2,4-pyrimidinediamine] | – | < 10 | – |
| COc1cc(Nc2nc(Nc3cc(Cl)cc(Cl)c3)ncc2F)cc(C(F)(F)F)c1 [Compound 337] | – | < 10 | – |
| COc1cc(Nc2nc(Nc3cc(C)c(Cl)c(C)c3)ncc2F)cc(C(F)(F)F)c1 [Compound 339] | – | > 10 | – |
| COc1cc(Nc2ncc(F)c(Nc3cc(OC)cc(OC)c3)n2)cc(OC)c1 [Compound 340] | < 10 | < 10 | – |
| Cc1cc(C)cc(Nc2ncc(F)c(Nc3cc(C)cc(C)c3)n2)c1 [Compound 341, N2,N4-Bis (3,5-dimethylphenyl)-5-fluoro-2,4-pyrimidinediamine] | – | – | IC50 (Homo sapiens, Mast cell, tryptase, 3 pt, read-out: LD Tryptase, CHMC, IgE, 3 pt): < 10 µM |
| CC1(C)Oc2ccc(Nc3nc(Nc4cc(CO)cc(CO)c4)ncc3F)cc2NC1=O [Compound 344, N2-[3,5-Bis (hydoxymethylene)phenyl]-N4-(2,2-dimethyl-3-oxo-4H-benz[1,4]oxazin-6-yl)-5-fluoro-2,4-pyrimidinediamine] | – | – | IC50 (Homo sapiens, Mast cell, tryptase, 8 pt, read-out: LD Tryptase, CHMC, IgE, 8 pt): < 10 µM |
